Values of other authors, collected in patent US6545056B1, “Aryl nitrone therapeutics and methods for treating inflammatory bowel disease” (Centaur Pharmaceuticals, Inc., priority 1999, dated 2003).

Tested on: senescence-accelerated mice

**Q.** For `CC(C)(C)/[N+]([O-])=C/c1ccccc1` [PBN, α-phenyl-t-butyl nitone], which “increase of the life span” value is on record?
**A.** The value was “one third”.
